Converted amounts (≈) assume the structure as drawn. Bounds are passed on as bounds.

For data set [1], the system named is enteric pathogens (Salmonella spp., Shigella spp., K. pneumoniae, and E. coli). Description: Checkerboard synergy assay (FIC), Gram-negative MDR clinical isolates. It is filed as cell-based. Particulars: Tebipenem/LpxC inhibitor combination, all tested enteric pathogens. Here is the method:
(§1) Before initiating drug combination assays, the MIC values for both compounds were determined against Shigella (Sf2457T), Salmonella (St14028), and E. coli (EcDH5a) isolates. […] 20 μM moxifloxacin was used as negative control (100% bacterial growth inhibition) in one column and DMSO as positive control (100% bacterial growth). A total of 25 µl of 1 × 10^6 CFU/mL bacterial culture was added to each well of a 384-well plate (μClear; Greiner Bio‐One). Plates were incubated overnight at 37 °C. Next, 10 µl of resazurin were added and plates were incubated at room temperature for 3 hr. Bacterial growth inhibition was measured by fluorescence in a Envision plate reader (PerkinElmer). All assays were performed in duplicate. Combination studies with clinical isolates were performed in 96-well plates (Greiner) adding 200 μl of 1 × 10^6 CFU/mL bacterial culture and following the same checkboard titration method as described above. The range of final working concentrations of each antimicrobial was adjusted based on the MIC of each selected organism.
(§2) MICs were determined for drug A and drug B alone and in combination. […]

The next data set relates to Salmonella (St14028). Description: Checkerboard synergy assay (FIC), laboratory isolate. Type of data set: cell-based, S. Typhimurium. Here is the method:
as §1
(§3) MICs were determined for drug A and drug B alone and in combination. […] The sum of FIC was expressed using the following equation: FIC = (MIC of drug A in combination / MIC of drug A alone) + (MIC of drug B in combination / MIC of drug B alone) ([Le Minh et al., 2015]; [Petersen et al., 2006]; [Hall et al., 1983]; [European Committee for Antimicrobial Susceptibility Testing (EUCAST) of the European Society of Clinical Microbiology and Infectious Dieases (ESCMID), 2000]).

A short description of the next data set: in vivo. Particulars: pig, po, 50 mg/kg. How it is done:
Blood was collected from the jugular veins while manually restraining the piglets. […] Blood samples were centrifuged at 2,200 x g for 10 min at 4 °C. Plasma was extracted and stored at –80 °C. Pharmacokinetic analysis was performed as above described.

Data set [2] deals with S. flexneri 2457T. Description: Gnotobiotic piglet Shigella infection model, efficacy. It is filed as in vivo. As to conditions: 6-day experiment.
Data set [3] deals with S. flexneri 2457T. Description: microbe, parasite or virus in culture. It is filed as cell-based, Shigella flexneri. How it is done:
Bacterial inoculum without drug was used as positive control. The bacteria inoculum (1 × 10^5 CFU/mL) for the assay was prepared by diluting a log phase incubated at 37 °C for 3–4 hr. Mueller Hinton agar plates were prepared containing 4xMIC and 10xMIC and inoculated with different concentrations of bacteria (1 × 10^9, 1 × 10^8, and 1 × 10^7 CFU/mL). Plates were prepared in duplicate and incubated overnight at 37 °C. The frequency of spontaneous resistant mutants was calculated by using the formula: FoR = resistant CFUs/inoculum CFUs. The mean of the two plates was reported.

In the next data set the test system is E. coli (EcDH5a). Description: Checkerboard synergy assay (FIC), laboratory isolate. Type of data set: cell-based, Escherichia coli. Here is the method:
as §1, §3

The test system of another data set is Campylobacter jejuni. Description: MIC by micro dilution, clinical Campylobacter isolates from Vietnam. It is filed as cell-based. As to conditions: 75 Campylobacter jejuni from diarrhoeal cases in Vietnam; read-out: median MIC. From the text: (§4) Selected compounds, including Tebipenem, were profiled against a panel of […] clinical isolates of enteric pathogens comprised of Shigella (Vietnam and Kenya; n = 135), non-typhoidal Salmonella (Vietnam; n = 117), Campylobacter (Vietnam; n = 75), and various pathogenic E. coli species (Vietnam; n = 7) ([Butcher et al., 2014]). The antimicrobial susceptibility profile of these organisms is described in Supplementary file 1.
(§5) Compound screening and dose response assays have been described previously ([Van Voorhis et al., 2016]; [Wiegand et al., 2008]). Briefly, the selected bacteria were cultured on the Luria-Bertani agar overnight at 37 °C (Campylobacter isolates were grown in 2.5% Laked Horse Blood cation-adjusted Mueller Hinton medium (CAMHB, Sigma Aldrich) and incubated in microaerophilic conditions (10% CO2, 5% O2 and 85% N2) at 42 °C); colonies were added to sterile PBS to form 0.5 McFarland solutions. […] The activity of the chemical was recorded as being active (yes) or non-active (no) for each of the tested chemicals. A non-active result was recorded when there was no evidence of bacterial inhibition, and the culture area was indistinguishable from the negative control.
(§6) MICs were evaluated using the micro dilution assay in Müller Hinton broth using 1 mM chemical stock solutions, and a final concentration of 5 × 10^5 CFU/mL bacteria. […]

The conditions of data set [4]: mice, Tebipenem PO 39 mg/kg, n = 3.
Another data set concerns Salmonella. Description: MIC by micro dilution, clinical Salmonella isolates from Vietnam. It is filed as cell-based. Particulars: 117 Salmonella from diarrhoeal cases in Vietnam; read-out: median MIC.
Excerpt: as §4, §5, §6

Data set [5] has as its system invasive and non-invasive Salmonella isolates. Description: Checkerboard synergy assay (FIC), clinical Salmonella isolates. It is filed as cell-based. Particulars: in combination with azithromycin. Here is the method: as §1, §2
The mark [6] stands for this setting: in combination with LpxC inhibitor PF-5081090.
Where [7] appears, read: in combination with azithromycin.
[8] abbreviates: in combination with ceftriaxone.
The mark [9] stands for this setting: in combination with ciprofloxacin.

As for `C[C@@H](O)[C@H]1C(=O)N2C(C(=O)O)=C(SC3CN(C4=NCCS4)C3)[C@H](C)[C@H]12` [Tebipenem], the “interaction (FIC index)” value was “indifference or partial synergy” in data set [1]; “partial synergy” in the data set on Salmonella (St14028) (setting [6]); “partial synergy” in the data set on Salmonella (St14028) (setting [7]); “indifference or partial synergy” with Salmonella (St14028) (setting [8]); “indifference or partial synergy” in the data set with Salmonella (St14028) (setting [9]); “indifference or partial synergy” in the data set with Salmonella (St14028) (in combination with mecillinam). Moreover, the “interaction (FIC index)” value with E. coli (EcDH5a) (setting [6]) is reported as “partial synergy”; in the data set with E. coli (EcDH5a) (setting [7]) it was “indifference or antagonism”; in the data set on E. coli (EcDH5a) (setting [8]) it was “indifference or partial synergy”; in the data set on E. coli (EcDH5a) (setting [9]), “indifference or partial synergy”; in the data set on E. coli (EcDH5a) (in combination with mecillinam), “indifference or partial synergy”. In addition, the “reduction of the MIC against Tebipenem” value with Salmonella (St14028) (setting [6]) and in the data set on E. coli (EcDH5a) (setting [6]) was over 10 fold in each case. This molecule also came in with an area under the curve AUC(0-t) in “in vivo” of 32000 ng·h/mL. Moreover, the concentration at 6 hr in “in vivo” came to 1000 ng/mL. In addition, in the data set on S. flexneri 2457T [2], the “weight gain vs vehicle-treated piglets” value is “not statistically significant”. In the data set on S. flexneri 2457T [3] (S. flexneri 2457T, 4 x and 10 x MIC), the “frequency of spontaneous resistance” value is listed as < 1.2 × 10^–9. Also, the MIC in the data set with S. flexneri 2457T [3] (Shigella flexneri, 2457T) is 0.02 µM (≈ 0.00767 µg/mL); in the data set on Campylobacter jejuni it was under 0.1 µM; with Salmonella it was under 0.1 µM. In data set [4], the bioavailability was determined as 4 ± 1%. Besides, the FIC scores in data set [5] is ~ 0.5.
